Results on 1 molecule are retold here after patent US20110217309A1, “BIOLOGICAL MARKERS PREDICTIVE OF ANTI-CANCER RESPONSE TO INSULIN-LIKE GROWTH FACTOR-1 RECEPTOR KINASE INHIBITORS” (priority 2010, published 2011).

One experiment relates to Colo205. Kind of experiment: Cell Titer Glo proliferation assay. Format: cell-based. As to conditions: Homo sapiens, COLO 205, read-out: EC50 in culture in vitro. The text has this: (§1) Cell Lines and Culture. Human cancer cell lines, were obtained from American Type Culture Collection (ATCC, Manassas, Va.), or the following additional indicated sources, and cultured in media as described. Tumor types are also indicated: H295R (adrenocortical carcinoma; ATCC), NCI-[…], NCI-[…], SW1573 (NSCLC; ATCC), […], BxPC3 (pancreatic; ATCC), OVCAR5 (ovarian; NCI), MDAH-2774 (ovarian; ATCC), Igrov1 (ovarian; NCI), GEO (colon; Roswell Park Cancer Institute (RPCC)), HT-29 (colon; ATCC), RKO (colon; ATCC), […], 8226 (myeloma; ATCC), H929 (myeloma; ATCC), U266 (myeloma; ATCC), SKES1 (Ewings sarcoma; ATCC), RDES (Ewings sarcoma; ATCC), RD (rhabdomyosarcoma; ATCC), DU4475 (breast; ATCC), SKNAS (neuroblastoma; ATCC), 2650 (nasal SCC; ATCC), OVCAR4 (ovarian; NCI), A673 (Ewings sarcoma; ATCC), BT474 (breast; ATCC), 1386 (oral SCC; MSKCC, NY), 1186 (SCCHN; MSKCC, NY), Colo205 (colon; ATCC), HCT-15 (colon; ATCC), Fadu (oral SCC; ATCC), SKBR3 (breast; ATCC), 1483 (HNSCC; MSKCC, NY), HSC-2 (HNSCC; RIKEN BioResource Center, Tsukuba, Ibaraki, 305-0074, Japan), SKOV-3 (ovarian; ATCC), OVCAR-3 (ovarian; NCI), OVCAR-8 (ovarian; NCI), CaOV3 (ovarian; ATCC). […] The cells were routinely screened for the presence of mycoplasma (MycoAlert, Cambrex Bio Science, Baltimore, Md.). For growth inhibition assays, cells were plated and allowed to proliferate for 24 hours. […] Cell viability was assayed using the Cell Titer-Glo reagent (Promega Corp., Madison, Wis.). Proliferation Assay. […] The basis of the assay is a luminescent quantitation of ATP present in a cell culture plate well. In essence, the greater the number of viable cells in the well, the greater the level of ATP present. The assay utilizes a substrate that binds ATP to produce a luminescent signal, which can be read on a luminometer. Unless otherwise noted, the manufacturer's instructions were followed exactly. Briefly, on Day 1, cells were plated in 120 μl of 10% serum-containing growth media at a density of 4000 cells/well in a white polystyrene 96 well assay plate. […] After 72 h incubation with the inhibitor, the cells were assayed. Results were calculated as a fraction of the DMSO controlled cells.
(In general: ATP-based viability assays read luminescence as a measure of living cells.)

Another experiment deals with H460. Kind of experiment: Cell Titer Glo proliferation assay. The format is cell-based. The following applies: Homo sapiens, NCI-H460; read-out: EC50 in culture in vitro.
Excerpt: as §1

The next experiment has as its system BxPC3. Kind of experiment: Cell Titer Glo proliferation assay. Format: cell-based. As to conditions: Homo sapiens, BXPC-3, read-out: EC50 in culture in vitro.
Excerpt: as §1

A further experiment concerns H295R. Kind of experiment: Cell Titer Glo proliferation assay. Format: cell-based. As to conditions: Homo sapiens, NCI-H295R; read-out: EC50 in culture in vitro.
Excerpt: as §1

Another experiment deals with H460 tumors. Nature of the experiment: Tumor xenograft study. The following applies: treatment in vivo for 10-14 days.
Another experiment has as its system BxPC3 tumors. Nature of the experiment: Tumor xenograft study. The following applies: treatment in vivo for 10-14 days.
The test system of another experiment is Akt. Kind of experiment: Phosphorylation of Akt (pAKT levels). The format is cell-based. The following applies: OSI-906, in the presence or absence of pactitaxel (100, 30, 10, 3, 1 nM). The method, then: The dotted line in the plot represents the calculated theoretical expectation if the combination was additive in nature, and was determined using the Bliss model for additivity. […] C.
The dotted line in the plot represents the calculated theoretical result if the combination was additive in nature, and was determined using the Bliss model for additivity.

The next experiment deals with FaDu tumors. Kind of experiment: Tumor xenograft study. As to conditions: treatment in vivo for 10-14 days.
The subject of the next experiment is SKNAS tumors. Kind of experiment: Tumor xenograft study. The following applies: treatment in vivo for 10-14 days.
In another experiment the test system is MDAH-2774 cells. Kind of experiment: Cell Titer Glo proliferation assay. Format: cell-based, human. The following applies: MDAH-2774, 72 hours, KRAS mutant. On the procedure: (§2) Cell Lines and Culture. Human cancer cell lines, were obtained from American Type Culture Collection (ATCC, Manassas, Va.), or the following additional indicated sources, and cultured in media as described. […] Cells were maintained at 37° C. in an incubator under an atmosphere containing 5% CO2. The cells were routinely screened for the presence of mycoplasma (MycoAlert, Cambrex Bio Science, Baltimore, Md.). For growth inhibition assays, cells were plated and allowed to proliferate for 24 hours. […] Cell viability was assayed using the Cell Titer-Glo reagent (Promega Corp., Madison, Wis.).
(§3) Proliferation Assay. […] The basis of the assay is a luminescent quantitation of ATP present in a cell culture plate well. In essence, the greater the number of viable cells in the well, the greater the level of ATP present. The assay utilizes a substrate that binds ATP to produce a luminescent signal, which can be read on a luminometer. Unless otherwise noted, the manufacturer's instructions were followed exactly. Briefly, on Day 1, cells were plated in 120 μl of 10% serum-containing growth media at a density of 4000 cells/well in a white polystyrene 96 well assay plate. […] After 72 h incubation with the inhibitor, the cells were assayed. Results were calculated as a fraction of the DMSO controlled cells.

The next experiment deals with OVCAR5 cells. Nature of the experiment: Cell Titer Glo proliferation assay. The format is cell-based, human. As to conditions: OVCAR5, 72 hours, KRAS mutant. On the procedure: as §2, §3

SMILES strings stand for the structures.

As a reminder, the EC50 is the concentration that produces a half-maximal response. With `C[C@]1(O)C[C@@H](c2nc(-c3ccc4ccc(-c5ccccc5)nc4c3)c3c(N)nccn32)C1` [OSI-906, cis-3-[8-amino-1-(2-phenyl-quinolin-7-yl)-imidazo[1,5-a]pyrazin-3-yl]-1-methyl-cyclobutanol], the concentration giving a half-maximal response (EC50) in the experiment with Colo205 was under 1 µM; in the experiment on H460, over 10 µM; in the experiment on BxPC3, under 1 µM; with H295R it was under 1 µM. For the same molecule, the “% TGI (tumor growth inhibition)” value with H460 tumors is reported as under 30%; in the experiment on BxPC3 tumors it was 56%; in the experiment with FaDu tumors, under 30%; in the experiment on SKNAS tumors, 71%. The “phosphorylation of Akt (pAKT levels)” value with Akt was “decrease”. The “EC50, proliferation” value with MDAH-2774 cells and in the experiment with OVCAR5 cells was “sub-micromolar” throughout.
